Data from patent publication US9572855B2, “Combination anti-estrogen receptor cancer therapy using MUC1 peptides and chemotherapeutics” (DANA-FARBER CANCER INSTITUTE, INC., priority 2013, dated 2017).
Non-standard residues stand in square brackets, D forms with d. Residues, ends and D or L forms follow the SMILES beside them.

Experiments:
MUC1-negative 293T cells = test: Cell death by trypan blue staining; type: cell-based, human; conditions: GO-203 each day for 4 days, day 4 (FIG. 8)
Source text: FIG. 8. 293T cells were left untreated or treated with GO-203 each day for 4 days.

MCF-7/MUC1-C cells [1] = test: Cell death by trypan blue staining; type: cell-based, human
Source text: (§1) (FIG. 2B) Control MCF-7/vector (diamonds) and MCF-7/MUC1-C (triangles) cells were left untreated.

[2] = system: MCF-7/MUC1-C/MUC1shRNA cells; test: Cell growth (viable cell number); type: cell-based, human; conditions: 5 μM tamoxifen days 0 and 2 (FIG. 6B)
Source text: (§2) (FIG. 6A) MCF-7/MUC1-C cells were infected with lentiviruses expressing the control shRNA (CshRNA) or the MUC1shRNA. Lysates from wild-type (WT) MCF-7 cells, MCF-7/MUC1-C/CshRNA and MCF-7/MUC1-C/MUC1shRNA cells were immunoblotted with the indicated antibodies. […] The results (mean±SD of three replicates) are expressed as viable cell number. […] The multiple effect-level isobologram analyses are shown for the ED50 (X), ED75 (+) and ED90 (⊙) values.

MCF-7/vector cells [3] = test: Cell growth (cell number); Chou-Talalay drug combination; type: cell-based, human; conditions: MCF-7 and MCF-7/vector cells; 5 μM tamoxifen on days 0, 2 and 4 (FIG. 2B)
Source text: (§3) The multiple effect-level isobologram analyses are shown for the ED50 (X), ED75 (+) and ED90 (⊙) values.

BT-474/MUC1shRNA cells [4] = test: Cell death by trypan blue staining; type: cell-based, human; conditions: 5 μM tamoxifen on days 0 and 2; compared to BT-474/CshRNA cells (FIG. 1C, left)
Source text: Cell number is expressed as the mean±SD of three replicates. […] The results (mean±SD of three replicates) are expressed as the percentage of cell death as determined by trypan blue staining on the indicated days (left) or on day 4 (right). […] Colony number (>30 cells) is expressed as the mean±SD of three replicates (right). […] Colony number (>30 cells) is expressed as the mean±SD of three replicates.

MCF-7/MUC1-C cells [5] = test: Colony formation assay; type: cell-based, human; conditions: 5 μM tamoxifen every other day for 7 days (FIG. 2E, right)
Method: as §1
(§4) FIGS. 5A-G. Tamoxifen-resistant cells are sensitive to MUC1-C inhibition. […] Lysates were immunoblotted with the indicated antibodies. (FIG. 5B) BT-474/CshRNA cells were left untreated (diamonds) or treated with 5 μM GO-203 (squares) each day for the indicated days. […] Lysates were immunoblotted with the indicated antibodies. (FIG. 5E) MCF-7/MUC1-C cells were left untreated (diamonds) or treated with 5 μM GO-203 (squares) each day for the indicated days. […] Soluble chromatin was precipitated with anti-ERα (left), anti-CBP (right) or a control IgG. The precipitates were analyzed for Rab31 promoter sequences.
(§5) Colony formation assays. Cells were seeded in 6-well plates for 24 h and then left untreated or treated with inhibitor. After 7-14 d, the cells were washed and stained with 0.5% crystal violet in 25% methanol. Colonies >30 cells were counted in triplicate wells.

MCF-7/vector cells [6] = test: Colony formation assay; type: cell-based, human; conditions: 5 μM tamoxifen every other day for 7 days (FIG. 2E, left)
Source text: (FIG. 2A) Lysates from wild-type (WT) MCF-7 cells, MCF-7/vector and MCF-7/MUC1-C cells were immunoblotted with the indicated antibodies. (FIG. 2B) Control MCF-7/vector (diamonds) and MCF-7/MUC1-C (triangles) cells were left untreated. […] Cell number is expressed as the mean±SD of three replicates. […] The results (mean±SD of three replicates) are expressed as the percentage of cell death as determined by trypan blue staining on the indicated days (left) or on day 4 (right). (FIG. 2D) MCF-7/vector and MCF-7/MUC1-C cells were seeded at 500 cells/well (6-well plate), grown for 7 days and then stained with crystal violet (left). Colony number (>30 cells) is expressed as the mean±SD of three replicates (right). […] Colony number (>30 cells) is expressed as the mean±SD of three replicates. Colony formation assays. Cells were seeded in 6-well plates for 24 h and then left untreated or treated with inhibitor. After 7-14 d, the cells were washed and stained with 0.5% crystal violet in 25% methanol. Colonies >30 cells were counted in triplicate wells.

BT-474/CshRNA cells [7] = test: Cell growth (viable cell number); Chou-Talalay drug combination; type: cell-based, human; conditions: BT-474 and BT-474/CshRNA cells; 5 μM tamoxifen on days 0 and 2; vs untreated (FIG. 1B)
BT-474/MUC1shRNA cells [8] = conditions: 5 μM tamoxifen on days 0 and 2 (FIG. 1B)
Source text: as §3

MCF-7/MUC1-C cells [9] = test: Cell growth (viable cell number); Chou-Talalay drug combination; type: cell-based, human; conditions: 5 μM tamoxifen on days 0, 2 and 4 (FIG. 2B)
Source text: Lysates were immunoblotted with the indicated antibodies. […] Lysates were immunoblotted with the indicated antibodies.
as §2

BT-474/CshRNA cells [10] = test: Colony formation assay; type: cell-based, human; conditions: 5 μM tamoxifen every other day for 14 days (FIG. 1E, left)
Method: as §4, §5

BT-474/MUC1shRNA cells [11] = test: Colony formation assay; type: cell-based, human; conditions: 5 μM tamoxifen every other day for 14 days (FIG. 1E, right)
Method: as §5

## N=C(N)NCCC[C@@H](N)C(=O)N[C@H](CCCNC(=N)N)C(=O)N[C@H](CCCNC(=N)N)C(=O)N[C@H](CCCNC(=N)N)C(=O)N[C@H](CCCNC(=N)N)C(=O)N[C@H](CCCNC(=N)N)C(=O)N[C@H](CCCNC(=N)N)C(=O)N[C@H](CCCNC(=N)N)C(=O)N[C@H](CCCNC(=N)N)C(=O)N[C@H](CS)C(=O)N[C@H](CCC(N)=O)C(=O)N[C@H](CS)C(=O)N[C@H](CCCNC(=N)N)C(=O)N[C@H](CCCNC(=N)N)C(=O)N[C@H](CCCCN)C(=O)N[C@H](CC(N)=O)C(=O)O [GO-203, [R]9-CQCRRKN] (H-[dR][dR][dR][dR][dR][dR][dR][dR][dR][dC][dQ][dC][dR][dR][dK][dN]-OH)
MUC1-negative 293T cells
  survival (percentage of cell death): little if any effect

## CC/C(=C(\c1ccccc1)c1ccc(OCCN(C)C)cc1)c1ccccc1 [tamoxifen]
MCF-7/MUC1-C cells [1]; 5 μM tamoxifen on days 0, 2 and 4, compared to MCF-7/vector cells (FIG. 2C, left)
  loss of viability (percentage of cell death): less sensitive
[2]
  sensitivity to tamoxifen treatment (viable cell number): regained sensitivity
MCF-7/vector cells [3]
  growth (cell number): inhibited
BT-474/MUC1shRNA cells [4]
  loss of viability (percentage of cell death): marked loss of viability
MCF-7/MUC1-C cells [5]
  clonogenic survival: but not clonogenic survival
MCF-7/vector cells [6]
  formation of colonies: effective in decreasing
BT-474/CshRNA cells [7]
  growth (cell number): unaffected
BT-474/MUC1shRNA cells [8]
  proliferation (cell number): clearly inhibited
MCF-7/MUC1-C cells [9]
  proliferation (cell number): little effect
BT-474/CshRNA cells [10]
  ability to form colonies: little if any effect
BT-474/MUC1shRNA cells [11]
  colony formation: marked decrease

## 4-hydroxytamoxifen [OHTAM]
MCF-7/MUC1-C cells [1]; 10 nM OHTAM on days 0 and 2, day 4, compared to MCF-7/vector cells (FIG. 2C, right)
  loss of viability (percentage of cell death): less sensitive
